Test results: patent US20210369583A1, “COMPOSITIONS FOR PROVIDING SKIN CARE BENEFITS AND METHODS OF USE” (Danisco US Inc., priority 2018, published 2021)

Test system: human living skin explant
Assay: Immunostaining of carbonylated proteins (FTZ) on human living skin explants
Format: cell-based
Experimental: human skin explants of an average diameter of 12 mm (±1 mm) were prepared on an abdoplasty coming from a person). The explants were kept in survival in BEM culture medium at 37° C. in a humid, 5%-CO2 atmosphere.
On day 0 (D0), day 1, day 2 and day 3 (3 hours before irradiation), the tested products were applied topically on surface of skin explants at the rate of 2 mg/cm^2, twice a day for D1 and D2 and once on DO and D3. […] The medium was half renewed (1 ml per well) on day 2.
On D3, the culture media of all the batches was replaced by HBSS solution (Hank's Balanced Saline Solution; 1 ml per explant). The batches “UV” were irradiated by UVA+ UVB using a UV simulator Vibert Lourmat RMX 3W with a dose of 18 J/cm2 of UVA (4 MED, minimal erythemal dose) and 0.3 J/cm2 of UVB (2 MED). The unirradiated batches were kept in HBSS in the dark. At the end of the irradiation the explants were put back in 2 mL of BEM medium.
After fixation for 24 hours in buffered formalin, the samples were dehydrated and impregnated in paraffin using a Leica PEARL dehydration automat. The samples were embedded using a Leica EG 1160 embedding station. 5-μm-thick sections were made using a Leica RM 2125 Minot-type microtome, and the sections were mounted on Superfrost® histological glass slides. The frozen samples were cut into 7-μm-thick sections using a Leica CM 3050 cryostat. Sections were then mounted on Superfrost® plus silanized glass slides. The microscopical observations were realized using a Leica DMLB or Olympus BX43 microscope. Pictures were digitized with a numeric DP72 Olympus camera with CellD storing software.
Protein carbonylation is a type of protein oxidation that can be promoted by reactive oxygen species (ROS), generated by UV exposure. FTZ marker assay was conducted by immunostaining in the living epidermis of human skin explant as follows: Carbonylated proteins were stained on frozen sections with the anti-carbonylated proteins probe (fluorescein-5-thiosemicarbazid-FTZ) (Lifetechnologies, Ref. F-121) diluted at 0.5 μM in MES-Na+ and incubated for 30 minutes in the dark and at room temperature. The staining was observed by epifluorescence and assessed by microscopical observations. Batches analyzed were T, TUV, P1UV, P2UV, P3UV at day 4 also referred to as TJ4, TUVJ4, P1UVJ4, P2UVJ4, P3UVJ4

O=C(O)[C@@H]1CCCN1 [Combination P4, L-Proline]
effect on UV-induced carbonylated proteins (UV irradiated): inhibited the formation of carbonylated proteins | Carbonylated proteins (FTZ), variation vs TJ4 (non irradiated, day 4): ↔ (indicates no variation)
